Measurements: PMC4826234, “Emodin potentiates the antiproliferative effect of interferon α/β by activation of JAK/STAT pathway signaling through inhibition of the 26S proteasome” (Oncotarget, 2015)

Legend:
Format in all cases: biochemical
[1] = target: T1, 26S proteasome β5 subunit (chymotrypsin-like activity) (Homo sapiens, UniProt P28074); assay: peptidase assay of purified human […] proteasome with Suc-Leu-Leu-Val-Tyr-AMC
T1 construct: gene PSMB5; purified human 26S proteasome; with other subunits of the 26S proteasome
T1 sequence (P28074 60-263): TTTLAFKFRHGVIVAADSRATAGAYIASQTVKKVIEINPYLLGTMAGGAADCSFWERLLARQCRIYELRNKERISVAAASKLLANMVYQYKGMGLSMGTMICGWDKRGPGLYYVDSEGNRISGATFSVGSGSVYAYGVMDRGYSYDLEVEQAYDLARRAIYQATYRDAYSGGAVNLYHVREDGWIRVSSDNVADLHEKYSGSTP

[2] = target: T2, 26S proteasome β2 subunit (trypsin-like activity) (Homo sapiens, UniProt Q99436); assay: peptidase assay of purified human […] proteasome with Ac-Arg-Leu-Arg-AMC
T2 construct: gene PSMB7; purified human 26S proteasome; with other subunits of the 26S proteasome
T2 sequence (Q99436 44-277): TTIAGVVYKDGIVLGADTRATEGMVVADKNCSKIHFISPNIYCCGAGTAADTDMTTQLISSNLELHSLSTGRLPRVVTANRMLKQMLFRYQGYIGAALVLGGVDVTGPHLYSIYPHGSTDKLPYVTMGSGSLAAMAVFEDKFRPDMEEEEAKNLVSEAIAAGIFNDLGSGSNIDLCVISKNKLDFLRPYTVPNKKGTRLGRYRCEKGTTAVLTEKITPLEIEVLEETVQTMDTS

[3] = target: T3, 26S proteasome β1 subunit (caspase-like activity) (Homo sapiens, UniProt P28072); assay: peptidase assay of purified human […] proteasome with Z-Nle-Pro-Nle-Asp-aminoluciferin
T3 construct: gene PSMB6; purified human 26S proteasome; with other subunits of the 26S proteasome
T3 sequence (P28072 35-239): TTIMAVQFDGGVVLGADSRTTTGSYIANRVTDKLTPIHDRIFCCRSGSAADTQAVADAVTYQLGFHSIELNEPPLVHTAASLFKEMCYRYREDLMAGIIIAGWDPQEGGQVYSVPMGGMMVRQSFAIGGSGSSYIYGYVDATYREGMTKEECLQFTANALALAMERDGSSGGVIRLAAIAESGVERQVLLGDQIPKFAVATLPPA

Cc1cc(O)c2c(c1)C(=O)c1cc(O)cc(O)c1C2=O [emodin, 1,3,8-trihydroxy-6-methylanthraquinone] was tested. Which IC50 [1] did it give?
Its IC50 is 1220 nM.

What about the IC50 [2] of the same compound?
Its IC50 is 20800 nM.

And the IC50 [3]?
Its IC50 is 240 nM.
